Patent publication US5130425A, “Spiro-lactams and analogs thereof useful as aldose reductase inhibitors” (American Home Products Corporation, priority 1991, dated 1992)

Tests used:
aldose reductase = target: T1, aldose reductase (Bos taurus, UniProt P16116); test: In vitro aldose reductase inhibition (modified procedure of Hayman and Kinoshita, enzyme from bovine lens); type: biochemical
T1 construct: preparation of the enzyme from bovine lens; from tissue; host or cells: bovine lens
Experimental: Only two minor reagent changes were made: (a) the rinsing mixture was an aqueous 5% (w/v) trichloroacetic acid solution and (b) the stock solution was prepared by dissolving 25 mg of dulcitol in 100 mL of an aqueous trichloroacetic acid solution. [N.B.: For each experiment the average value found in the tissue from rats fed the glucose diet was subtracted from the individual values found in the corresponding tissue in galactose-fed rats to obtain the amount of polyol accumulated.] […] In the present case the procedure of Hayman and Kinoshita was modified in that the final chromatography step was omitted in the preparation of the enzyme from bovine lens.

[1] = system: galactitol (dulcitol) accumulation in tissues of galactosemic rats; test: Galactosemic rat test: lowering of galactitol (dulcitol) accumulation in lens, sciatic nerve and diaphragm; type: in vivo, rat (Sprague-Dawley, male); set-up: key to % Lowering Galactitol Accumulation In vivo, L: NS: not significant; details: 4 days, vs untreated galactosemic rats; for % Lowering Galactitol Accumulation In vivo, D: diaphragm; for % Lowering Galactitol Accumulation In vivo, L: lens
Source text: The aldose reductase inhibiting property of the compounds of this invention and the utilization of the compounds in preventing, diminishing and alleviating diabetic complications are demonstrable in experiments using galactosemic rats, see Dvornik et al., Science, 182, 1146 (1973). Such experiments are exemplified hereinbelow after the listing of the following general comments pertaining to these experiments:
(a) Four or more groups of six male rats, 50-70 g, Sprague-Dawley strain, were used. The first group, the control group, was fed a mixture of laboratory chow (rodent Laboratory Chow, Purina) and glucose at 20% (w/w %) concentration. An untreated galactosemic group was fed a similar diet in which galactose was substituted for glucose. The third group was fed a diet prepared by mixing a given amount of the test compound with the galactose containing diet. The concentration of galactose in the diet of the treated groups was the same as that for the untreated galactosemic group.
(b) After four days, the animals were killed by euthanization. Both the lens and sciatic nerve were removed, weighed and stored frozen for polyol determination.
(c) The polyol determination was performed by a modification of the procedure of M. Kraml and L. Cosyns, Clin. Biochem., 2,373 (1969). Only two minor reagent changes were made: (a) the rinsing mixture was an aqueous 5% (w/v) trichloroacetic acid solution and (b) the stock solution was prepared by dissolving 25 mg of dulcitol in 100 mL of an aqueous trichloroacetic acid solution. [N.B.: For each experiment the average value found in the tissue from rats fed the glucose diet was subtracted from the individual values found in the corresponding tissue in galactose-fed rats to obtain the amount of polyol accumulated.] The aldose reductase inhibiting effects of the compounds of formula (I) were also tested by employing an in vitro testing procedure similar to that described by S. Hayman and J. H. Kinoshita, J. Biol. Chem., 240, 877 (1965). In the present case the procedure of Hayman and Kinoshita was modified in that the final chromatography step was omitted in the preparation of the enzyme from bovine lens.
The figures under L, N, and D represent the percentage decrease of dulcitol accumulation in the tissues of the lens, sciatic nerve, and diaphragm, respectively, for treated rats as compared to untreated rats.

[2] = column headed 10^5 (concentration unit not given)
[3] = column headed 10^-6 (concentration unit not given)
[4] = column headed 10^-7 (concentration unit not given)

Structure (SMILES)	% Inhibition In Vitro (aldose reductase; [2])	% Inhibition In Vitro (aldose reductase; [3])	% Inhibition In Vitro (aldose reductase; [4])	% Lowering Galactitol Accumulation In vivo, D ([1]; 28 mg/kg/day in diet)	% Lowering Galactitol Accumulation In vivo, L ([1]; 28 mg/kg/day in diet)	% Lowering Galactitol Accumulation In vivo, D ([1]; 11 mg/kg/day in diet)	% Lowering Galactitol Accumulation In vivo, D ([1]; 49 mg/kg/day in diet)	% Lowering Galactitol Accumulation In vivo, L ([1]; 11 mg/kg/day in diet)	% Lowering Galactitol Accumulation In vivo, L ([1]; 49 mg/kg/day in diet)
CN1C(=O)c2ccc(Br)cc2C2(CC(=O)N2)C1=O (stereo not drawn) [Br CH3, 6'-bromo-2'-methylspiro[azetidine-2,4'(1'H)-isoquinoline]-1',3',4(2'H)-trione]	96%	77%	16%	86%	36%	–	–	–	–
CN1C(=O)c2ccc(Cl)cc2C2(CC(=O)N2)C1=O (stereo not drawn) [Cl CH3, 6'-chloro-2'-methylspiro[azetidine-2,4'(1'H)-isoquinoline]-1',3',4(2'H)-trione]	84%	75%	22%	–	–	70%	82%	NS	66%
